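Protocol summary: plate cells (96-well), add compound at 5 concentrations, incubate 48 h, interpolate endpoints linearly. Here, GI50 denotes the concentration required for 50% inhibition of growth.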 Activity calls are given as the source filed them. No stated cut-off is given here; in the data, active = GI50 up to about 1.1 µM and inactive = higher.
Legend:
Assay in all cases: NCI-60 cell line screen, 48 h
EKVX = system: EKVX
MCF7 = system: MCF7
RPMI-8226 = system: RPMI-8226
SF-539 = system: SF-539
MDA-MB-231 = system: MDA-MB-231
SW-620 = system: SW-620
SNB-19 = system: SNB-19
OVCAR-5 = system: OVCAR-5
MDA-N = system: MDA-N
HOP-62 = system: HOP-62
LOX IMVI = system: LOX IMVI
T47D = system: T47D
A498 = system: A498
OVCAR-8 = system: OVCAR-8
NCI-H522 = system: NCI-H522
UACC-257 = system: UACC-257
A549 = system: A549
NCI-H226 = system: NCI-H226
Malme-3M = system: Malme-3M
SR = system: SR

Row | SMILES | GI50 (EKVX) | GI50 (MCF7) | GI50 (RPMI-8226) | GI50 (SF-539) | GI50 (MDA-MB-231) | GI50 (SW-620) | GI50 (SNB-19) | GI50 (OVCAR-5) | GI50 (MDA-N) | GI50 (HOP-62) | GI50 (LOX IMVI) | GI50 (T47D) | GI50 (A498) | GI50 (OVCAR-8) | GI50 (NCI-H522) | GI50 (UACC-257) | GI50 (A549) | GI50 (NCI-H226) | GI50 (Malme-3M) | GI50 (SR)
1 | Cc1cccc(C)c1NC(=S)NC=C(C(N)=O)C(N)=O | > 100 µM (inactive) | > 100 µM (inactive) | > 100 µM (inactive) | > 100 µM (inactive) | > 100 µM (inactive) | > 100 µM (inactive) | > 100 µM (inactive) | > 100 µM (inactive) | > 100 µM (inactive) | > 100 µM (inactive) | > 100 µM (inactive) | > 100 µM (inactive) | > 100 µM (inactive) | > 100 µM (inactive) | > 100 µM (inactive) | > 100 µM (inactive) | > 100 µM (inactive) | > 100 µM (inactive) |  | 
2 | CC1S/C(=N/c2nnc(-c3ccccc3)o2)NC1=O (stereo not given) | 27 µM (inactive) | 44 µM (inactive) | 49 µM (inactive) | 30.2 µM (inactive) | 43.3 µM (inactive) | 46 µM (inactive) | 55.6 µM (inactive) | > 100 µM (inactive) | 32.7 µM (inactive) | 26.7 µM (inactive) | 35.5 µM (inactive) | 61.1 µM (inactive) | > 100 µM (inactive) | 43.6 µM (inactive) | 28 µM (inactive) | 53.8 µM (inactive) | 37.6 µM (inactive) | > 100 µM (inactive) | 41.4 µM (inactive) | 
3 | C=CCn1c2ccccc2[n+]2cc([N+](=O)[O-])ccc12 | 37 µM (inactive) | 26.3 µM (inactive) |  | 32.7 µM (inactive) | 34.7 µM (inactive) | 30.8 µM (inactive) | 66.2 µM (inactive) | 74 µM (inactive) | 23.9 µM (inactive) | 54.3 µM (inactive) | 30.5 µM (inactive) | 32.3 µM (inactive) | 19.5 µM (inactive) | 27 µM (inactive) | 16 µM (inactive) | 21.3 µM (inactive) | > 100 µM (inactive) | 25.9 µM (inactive) | 15.8 µM (inactive) | 
4 | O=c1[nH]c(=O)n(COC(CO)CO)cc1-c1ccccc1 | > 100 µM (inactive) | > 100 µM (inactive) | > 100 µM (inactive) |  | > 100 µM (inactive) | > 100 µM (inactive) | > 100 µM (inactive) | > 100 µM (inactive) | > 100 µM (inactive) | > 100 µM (inactive) | > 100 µM (inactive) | > 100 µM (inactive) |  | > 100 µM (inactive) | > 100 µM (inactive) | > 100 µM (inactive) | > 100 µM (inactive) |  | > 100 µM (inactive) | > 100 µM (inactive)
5 | Cc1nnc2n(c1=O)CCCN2C | > 100 µM (inactive) | > 100 µM (inactive) | > 100 µM (inactive) | > 100 µM (inactive) | > 100 µM (inactive) | > 100 µM (inactive) | > 100 µM (inactive) | > 100 µM (inactive) | > 100 µM (inactive) | > 100 µM (inactive) | > 100 µM (inactive) | > 100 µM (inactive) |  | > 100 µM (inactive) |  |  | > 100 µM (inactive) | > 100 µM (inactive) | > 100 µM (inactive) | > 100 µM (inactive)
6 | c1cc2c3ccsc3c3sccc3c2s1 | > 100 µM (inactive) | 26.9 µM (inactive) | > 100 µM (inactive) | 90.8 µM (inactive) | > 100 µM (inactive) | > 100 µM (inactive) |  | > 100 µM (inactive) | > 100 µM (inactive) | 21.4 µM (inactive) | > 100 µM (inactive) | > 100 µM (inactive) | > 100 µM (inactive) | > 100 µM (inactive) |  | > 100 µM (inactive) | > 100 µM (inactive) | 10 µM (inactive) |  | 24.7 µM (inactive)
7 | O=C(O)C1CCCN1Cc1cc2ccccc2c2ccccc12 (stereo not given) | > 100 µM (inactive) | > 100 µM (inactive) | > 100 µM (inactive) | > 100 µM (inactive) | > 100 µM (inactive) | > 100 µM (inactive) | > 100 µM (inactive) | > 100 µM (inactive) | > 100 µM (inactive) | > 100 µM (inactive) | > 100 µM (inactive) | > 100 µM (inactive) | > 100 µM (inactive) | > 100 µM (inactive) | > 100 µM (inactive) | > 100 µM (inactive) | > 100 µM (inactive) | > 100 µM (inactive) | > 100 µM (inactive) | 
8 | Nc1nc(N)c2nc(CN(C=O)c3ccc(C(=O)O)cc3)cnc2n1 | > 26.4 µM (inactive) | 5.31 µM (inactive) | 14.7 µM (inactive) | 8.26 µM (inactive) | > 100 µM (inactive) | 17 µM (inactive) | > 42.2 µM (inactive) | > 70 µM (inactive) | 8.71 µM (inactive) | 14 µM (inactive) | 4.27 µM (inactive) | > 100 µM (inactive) |  | 3.85 µM (inactive) | 0.438 µM (active) | > 100 µM (inactive) | 6.14 µM (inactive) | > 100 µM (inactive) | 8.18 µM (inactive) | 10.1 µM (inactive)
9 | Oc1ccc2c(c1)OCC1c3ccccc3OC21 (stereo not given) | 27.9 µM (inactive) | 86.5 µM (inactive) | 45.7 µM (inactive) | > 100 µM (inactive) | 78 µM (inactive) | 63.5 µM (inactive) | 40.6 µM (inactive) | > 100 µM (inactive) | 35.6 µM (inactive) | > 100 µM (inactive) | 32.3 µM (inactive) | > 100 µM (inactive) | > 100 µM (inactive) | 48.3 µM (inactive) |  | 86.9 µM (inactive) |  | > 100 µM (inactive) |  | 
10 | CC(C)c1cccc(C(C)C)c1NC(=O)/C(CC(=O)CC(c1ccccc1)c1c(O)c2ccccc2oc1=O)=N/O (stereo not given) | > 100 µM (inactive) | > 100 µM (inactive) | > 100 µM (inactive) | > 100 µM (inactive) | > 100 µM (inactive) | > 100 µM (inactive) | > 100 µM (inactive) | > 100 µM (inactive) | > 100 µM (inactive) | > 100 µM (inactive) | > 100 µM (inactive) | > 100 µM (inactive) | > 100 µM (inactive) | > 100 µM (inactive) | > 100 µM (inactive) | > 100 µM (inactive) | > 100 µM (inactive) | > 100 µM (inactive) | 95.9 µM (inactive) | 
11 | CC1(C)[C@@H]2C[C@H]1[C@@H](Cc1cccc(C[C@H]3c4cc(-c5ccccn5)ncc4[C@H]4C[C@@H]3C4(C)C)c1)c1cc(-c3ccccn3)ncc12 | 4.62 µM (inactive) | 4.92 µM (inactive) | 1.47 µM (inactive) | 4 µM (inactive) | > 31.8 µM (inactive) | 8.45 µM (inactive) | 3.46 µM (inactive) | > 72.4 µM (inactive) | 6.22 µM (inactive) | 17.5 µM (inactive) | 1.75 µM (inactive) | 2.44 µM (inactive) | > 44.4 µM (inactive) | 1.79 µM (inactive) | 8.93 µM (inactive) | 4.62 µM (inactive) | 2.76 µM (inactive) | 2.83 µM (inactive) |  | 
12 | CCOC(=O)CCCNC(=O)CCCCC(=O)N(C)C | > 100 µM (inactive) | > 100 µM (inactive) | > 100 µM (inactive) | > 100 µM (inactive) | > 100 µM (inactive) | > 100 µM (inactive) | > 100 µM (inactive) | > 100 µM (inactive) | > 100 µM (inactive) | > 100 µM (inactive) | > 100 µM (inactive) | > 100 µM (inactive) | > 100 µM (inactive) | > 100 µM (inactive) | > 100 µM (inactive) | > 100 µM (inactive) | > 100 µM (inactive) | > 100 µM (inactive) | > 100 µM (inactive) | 
13 | Cc1ccc(S(=O)(=O)NC(=O)NNc2ccc(F)cc2)cc1 | > 100 µM (inactive) | > 100 µM (inactive) | > 27 µM (inactive) | > 100 µM (inactive) | > 100 µM (inactive) | > 100 µM (inactive) | > 100 µM (inactive) | > 100 µM (inactive) | > 100 µM (inactive) | > 100 µM (inactive) | > 100 µM (inactive) | > 100 µM (inactive) | > 100 µM (inactive) |  | > 100 µM (inactive) | > 100 µM (inactive) | > 100 µM (inactive) | > 100 µM (inactive) | > 100 µM (inactive) | 
14 | O=C1OS2(OC(=O)c3cccc4cccc2c34)c2ccccc21 (stereo not given) | > 100 µM (inactive) | > 100 µM (inactive) | > 100 µM (inactive) | > 100 µM (inactive) | > 100 µM (inactive) | > 100 µM (inactive) | > 100 µM (inactive) | > 100 µM (inactive) | > 100 µM (inactive) | > 100 µM (inactive) | > 100 µM (inactive) | > 100 µM (inactive) | > 100 µM (inactive) | > 100 µM (inactive) | > 100 µM (inactive) | > 100 µM (inactive) | > 100 µM (inactive) | > 100 µM (inactive) | > 100 µM (inactive) | 
15 | C1CSCCSCCS1 | > 100 µM (inactive) | > 100 µM (inactive) | > 100 µM (inactive) | > 100 µM (inactive) | > 100 µM (inactive) | > 100 µM (inactive) | > 100 µM (inactive) | > 100 µM (inactive) | > 100 µM (inactive) | > 100 µM (inactive) | > 100 µM (inactive) | > 100 µM (inactive) |  | > 100 µM (inactive) | > 100 µM (inactive) | > 100 µM (inactive) | > 100 µM (inactive) |  |  | > 100 µM (inactive)

— ChEMBL document CHEMBL1201862, “PubChem BioAssay data set” (2004)
